Assays:
[1] = test system: T. cruzi; experiment: T. cruzi trypomastigote (TRY) in-vitro screen; type: cell-based
Description: (§5) In-vitro chemotherapy screens have for many years used models involving three stages of the T. cruzi life cycle: • (1) Epimastigote. Dividing populations are easily cultivated in a range of defined and semi-defined media, but are equivalent to a vector stage of the life cycle. • (2) Trypomastigote. These are isolated from a rodent host and can be maintained as a non-dividing population for 24-48 h in media. • (3) Amastigote. Dividing populations can be cultivated in muscle cells, fibroblasts and macrophages, following infection with trypomastigotes. After the initial infection, there is normally a period of 4-5 days during which the amastigotes divide before transforming, via the epimastigote stage, back to trypomastigotes which escape from the cell. Drug activity is measured during this 4-5 day period. A dividing host cell population, low infection rate, and the presence of trypomastigotes in the overlay can complicate the interpretation of results.

[2] = test system: T. cruzi; experiment: T. cruzi epimastigote (EPI) in-vitro screen; type: cell-based
Description: as §5

[3] = test system: T. cruzi; experiment: T. cruzi mouse model, in-vivo
Description: (§1) In-vitro and in-vivo models were used to test activities of a selection of many compounds. Those activities are summarized in Tables 1-3, showing variation between systems and species. Activities measured in the MP mo and HM mo models have shown the best correlation with results obtained in hamster and mouse models.

[4] = test system: T. cruzi; experiment: T. cruzi intracellular amastigote (AM) in-vitro screen; type: cell-based
Description: Dividing populations can be cultivated in muscle cells, fibroblasts and macrophages, following infection with trypomastigotes. After the initial infection, there is normally a period of 4-5 days during which the amastigotes divide before transforming, via the epimastigote stage, back to trypomastigotes which escape from the cell. Drug activity is measured during this 4-5 day period. A dividing host cell population, low infection rate, and the presence of trypomastigotes in the overlay can complicate the interpretation of results.
Intracellular amastigote models can use a range of muscle (skeletal and cardiac) and fibroblast (e.g. HeLa, HePa) cell lines, macrophages, and chick embryo cells. […] To overcome the problems of overgrowth of the monolayer and a low percentage of infected cells, often associated with the use of cell lines, irradiated rat L6 myoblasts are used.

[5] = test system: L donovani; experiment: Amastigote-promastigote (AM-PRO) transformation, in-vitro; type: cell-based; details: Ld.
[6] = test system: L major/L mexicana; experiment: Leishmania mouse/hamster models, in-vivo; details: Lm. Also: key: - no/poor activity,; + fair/moderate activity,; ++ good/excellent activity.
Description: as §1

[7] = test system: L donovani; experiment: Leishmania mouse/hamster models, in-vivo; details: Ld. Also: key: - no/poor activity,; + fair/moderate activity,; ++ good/excellent activity.
Description: as §1

[8] = test system: L major/L mexicana; experiment: Amastigotes (AM) in cell lines, in-vitro; type: cell-based; details: Lm., Amastigote; also: key: - no/poor activity,; + fair/moderate activity,; ++ good/excellent activity
Description: (§2) Amastigotes of Leishmania can be cultivated in a wide range of mammalian cells, some of which may be used in in-vitro screens. These include (1) a Sticker dog sarcoma (fibroblast) cell line, (2) transformed rodent macrophage cell lines, (3) primary isolated mouse peritoneal macrophages (MP mo), and (4) human monocyte-derived macrophages (HM mo). The methods are similar for all models. Amastigote or promastigote infected cells are maintained in a medium containing the drug for 4-7 days, at 37 C for L. donovani and 33-35 C for L. major and L. mexicana. Drug activity is then assessed by counting (I) the number of infected host cells and/or (II) the number of amastigotes/100 host cells.
as §1

[9] = test system: L donovani; experiment: Amastigotes (AM) in cell lines, in-vitro; type: cell-based; details: Ld., Amastigote; also: key: - no/poor activity,; + fair/moderate activity,; ++ good/excellent activity
Description: as §2, §1

[10] = test system: L major/L mexicana; experiment: Amastigote-promastigote (AM-PRO) transformation, in-vitro; type: cell-based; details: Lm.
[11] = test system: L major/L mexicana; experiment: Amastigotes (AM) in mouse or human macrophages (mos), in-vitro; type: cell-based; details: Lm., Amastigote
Description: as §2, §1

[12] = test system: L donovani; experiment: as above; type: cell-based; details: Ld., Amastigote
Description: as §2, §1

[13] = test system: L major/L mexicana; experiment: Leishmania promastigote (PRO) in-vitro screen; type: cell-based; details: Lm.
Description: (§3) Following initial infection, the amastigote is the only form present in the mammalian host, surviving and dividing in various macrophage populations. Differences between the promastigote and amastigote in form and habitat are not matched by known biochemical dissimilarities. However, the drug susceptibility of the cultured promastigote, used in many early chemotherapy screens, contrasts markedly with that of the amastigote (see Table 1, below), most importantly to the clinically used pentavalent antimonials - sodium stibogluconate (Pentostam) and meglumine antimoniate (Glucantime).
as §2, §1

[14] = test system: L donovani; experiment: Leishmania promastigote (PRO) in-vitro screen; type: cell-based; details: Ld.
Description: as §3, §2, §1

[15] = test system: T.b. brucei, T.b. gambiense and T.b. rhodesiense; experiment: Cultivated bloodstream trypomastigote (TRY) in-vitro screen; type: cell-based
Description: Culture systems developed in the last decade have used mammalian cell feeder layers to support the growth of dividing populations of bloodstream trypomastigotes of T. brucei spp. Some of these systems have been used in chemotherapy studies, including; (1) bovine fibroblast culture - T. brucei models to test some standard and experimental compounds, (2) murine bone marrow culture - T.b. gambiense model to screen inosine analogues and platinum and hypolipidemic compounds, and (3) Microtus embryonic fibroblast culture (MEF) - T.b. rhodesiense model to test standard and experimental drugs. These systems give a good indication of in-vivo activity (see Table 3). They measure activity against dividing cells rather than specific macromolecular synthesis pathways and can be readily established in micro-titre plates. The MEF and bone marrow cell feeder layers can be used to grow a range of strains of T. brucei spp., offering the possibility of examining variations in drug susceptibility and resistance between strains. The presence of a feeder layer, however, limits the opportunities for the automation of these systems.
as §1

[16] = test system: T.b. brucei, T.b. gambiense and T.b. rhodesiense; experiment: Isolated bloodstream trypomastigote (TRY) in-vitro screen; type: cell-based
Description: (§4) Primary screening for new trypanocides has made extensive use of rodent systems, in which host survival time is a simple indicator of drug activity. In-vitro screens have used a variety of trypomastigote types (see Table 3, below). […] Most early in-vitro screens employed a short test in which bloodstream trypomastigotes were isolated from an infected rodent and maintained for up to 24 h in a simple drug-containing media. Two significant modifications of this technique include maintaining isolated bloodstream trypomastigotes in drug-containing media for 3-4 hours at 37° C in micro-titre plates and their subsequent viability assessed by the uptake of radiolabelled precursors or motility and infectivity to mice.
In-vitro studies on isolated bloodstream trypomastigotes were also used in the rational biochemical approaches towards the chemotherapy of T. brucei infections involving inhibitors of carbohydrate catabolism salicyl hydroxamic acid plus glycerol), of polyamine synthesis (methylgyoxal bis-guanylhydrazone and - DFMO), and of surface coat glycoprotein synthesis (Tunicamycin). In these studies, activity of the compounds are shown in-vitro and in-vivo, whereas the sensitivity of isolated bloodstream trypomastigotes to toxic oxygen radicals generated by naphthoquinones was not shown by the parasites in mice. The activity of the standard anti-trypanosomals-melarsoprol, pentamidine and suramin and tested compounds according to the present invention in in-vitro systems is shown in Table 3.
as §1

[17] = test system: T.b. brucei, T.b. gambiense and T.b. rhodesiense; experiment: African trypanosomiasis mouse model, in-vivo
Description: as §4, §1

With O=C(Cn1ccnc1[N+](=O)[O-])NCc1ccccc1 [Benznidazole, benznidazole, reference compound] the “activity, TRY” value ([1]; T. cruzi strain Sonya) was “++(Y,Sonya)”, the “activity, TRY” value ([1]; T. cruzi strain Y) was “++(Y,Sonya)” and the “activity, EPI” value ([2]; T. cruzi strain MR) was “++(Y,MR, Sonya)”. For the same molecule, the “activity, EPI” value ([2]; T. cruzi strain Sonya) was “++(Y,MR, Sonya)”, the “activity, EPI” value ([2]; T. cruzi strain Y) was “++(Y,MR, Sonya)” and the “activity, mouse model” value ([3]; T. cruzi strain Sonya) was “+”. The “activity, mouse model” value ([3]; T. cruzi strain Y) was “++”, the “activity, intracellular AM” value ([4]; T. cruzi strain Sonya) was “++(Y,Sonya)” and the “activity, intracellular AM” value ([4]; T. cruzi strain Y) was “++(Y,Sonya)”.
For N=C(N)c1ccc(OCCCCCOc2ccc(C(=N)N)cc2)cc1 [Pentamidine, pentamidine, reference compound], the “Activity, AM-PRO transform-ation” value [5] was “+ +”, the “Activity, mouse/ hamster models” value [6] was “-” and the “Activity, mouse/ hamster models” value [7] was “+”. The “Activity, AM in cell lines” value [8] was “+”, the “Activity, AM in cell lines” value [9] was “-” and the “Activity, AM-PRO transform-ation” value [10] was “+ +”. The “Activity, AM in mouse or human mos” value [11] was “+ +”, the “Activity, AM in mouse or human mos” value [12] was “+” and the “Activity, PRO” value [13] was “+ +”. The “Activity, PRO” value [14] was “+ +”, the “activity, cultivated bloodstream TRY” value [15] was “+ +” and the “activity, isolated bloodstream TRY” value [16] was “+ +”. For the same molecule, the “activity, mouse model” value [17] was “+ +”.
In the case of CC1CS(=O)(=O)CCN1/N=C/c1ccc([N+](=O)[O-])o1 (stereo not shown) [Nifurtimox, nifurtimox], the “activity, mouse model” value ([3]; T. cruzi strain CL) is reported as “++ and +”, the “activity, mouse model” value ([3]; T. cruzi strain Sonya) is reported as “+” and the “activity, mouse model” value ([3]; T. cruzi strain Tu) is reported as “+”. For the same molecule, the “activity, mouse model” value ([3]; T. cruzi strain WBH) was “++”, the “activity, mouse model” value ([3]; T. cruzi strain Y) was “++ and +” and the “activity, intracellular AM” value ([4]; T. cruzi strain Sonya) was “++(Y,WBH, Sonya)”. The “activity, intracellular AM” value ([4]; T. cruzi strain WBH) was “++(Y,WBH, Sonya)” and the “activity, intracellular AM” value ([4]; T. cruzi strain Y) was “++(Y,WBH, Sonya)”.
With O.O.O.O.O.O.O.O.O.O=C([O-])[C@@H]1[O][Sb]2([O-])([O][Sb]34([OH])[O][C@H]([C@H](O)CO)[C@H]([O]3)[C@H](C(=O)[O-])[O]4)[O][C@H]([C@H](O)CO)[C@@H]1[O]2.[Na+].[Na+].[Na+] [Sodium stibogluconate, sodium stibogluconate, reference compound] the “Activity, mouse/ hamster models” value [7] was “+ +”, the “Activity, AM-PRO transform-ation” value [10] was “+ +” and the “Activity, AM in mouse or human mos” value [11] was “+ +”. The “Activity, AM in mouse or human mos” value [12] was “+ +”.

From EP0462621A2, “Use of particular compounds for manufacture of pharmaceutical formulations for treatment against various parasites, mycoplasmas, other indications and other infections” (Prendergast, Patrick Thomas, priority 1990, dated 1991)
